Like-named read-outs stand apart in the source and are kept apart here.
Test system: Caenorhabditis elegans
Assay: Toxicity test, adult Caenorhabditis elegans, 96 well micro plate
Assay type: in vivo
Conditions: for mortality at 50 ppm / mortality at 100 ppm / mortality at 200 ppm / mortality at 300 ppm / mortality at 400 ppm: Caenorhabditis elegans
Description: Methodology: Toxicity tests were conducted using J2 juveniles of Meloidogyne incognita adult Caenorhabditis elegans collected from nematode-infested tomato plant roots and culture Petri plates, respectively. Test concentrations of 50, 100, 200, 300, or 400 ppm were prepared in 0.2% dimethylsulfoxide (DMSO) in tap water. Aliquots (300 microliters (ul)) were applied to a 96 well micro plate and a 20 ul aqueous solution containing nematodes was added. The number of nematodes in 20 ul ranged from 17 to 30. Micro plates were sealed with Parafilm™ and incubated at room temperature. Similar tests conducted with 0.2% DMSO in tap water served as controls. Nematode mortality was checked at 24, 48, 72, 120, and 168 hr after incubation. Nematodes that were motionless for 30 sec when observed under a stereomicroscope were considered paralyzed and included in mortality counts. Each concentration was replicated five times and mean percent mortality was calculated after correcting for control mortality using Abbott's formula.
Data Analysis: Mortality data were analyzed using PROC PROBIT (SAS) program and LC50 values were estimated.

[1] = 24 hr, read-out: Corrected Mortality (%)
[2] = 48 hr, read-out: Corrected Mortality (%)
[3] = 72 hr, read-out: Corrected Mortality (%)
[4] = 120 hr, read-out: Corrected Mortality (%)
[5] = 120 hr, read-out: Mortality (%)
[6] = 168 hr, read-out: Corrected Mortality (%)
[7] = 168 hr, read-out: Mortality (%)

O=S(=O)(O)c1cc(N=C=S)ccc1/C=C/c1ccc(N=C=S)cc1S(=O)(=O)O [DIDS, trans-4,4′-diisothiocyanatostilbene-2,2′-disulfonic acid, reference compound]
mortality at 50 ppm [1]: 14% | mortality at 50 ppm (24 hr, read-out: Mortality (%)): 16% | mortality at 50 ppm [2]: 34% | mortality at 50 ppm (48 hr, read-out: Mortality (%)): 36% | mortality at 50 ppm [3]: 56% | mortality at 50 ppm (72 hr, read-out: Mortality (%)): 58% | mortality at 50 ppm [4]: 74% | mortality at 50 ppm [5]: 76% | mortality at 50 ppm [6]: 98% | mortality at 50 ppm [7]: 98% | mortality at 100 ppm [1]: 18% | mortality at 100 ppm (24 hr, read-out: Mortality (%)): 20% | mortality at 100 ppm [2]: 43% | mortality at 100 ppm (48 hr, read-out: Mortality (%)): 45% | mortality at 100 ppm [3]: 68% | mortality at 100 ppm (72 hr, read-out: Mortality (%)): 69% | mortality at 100 ppm [4]: 88% | mortality at 100 ppm [5]: 89% | mortality at 100 ppm [6]: 100% | mortality at 100 ppm [7]: 100% | mortality at 200 ppm [1]: 22% | mortality at 200 ppm (24 hr, read-out: Mortality (%)): 24% | mortality at 200 ppm [2]: 44% | mortality at 200 ppm (48 hr, read-out: Mortality (%)): 46% | mortality at 200 ppm [3]: 77% | mortality at 200 ppm (72 hr, read-out: Mortality (%)): 77% | mortality at 200 ppm [4]: 97% | mortality at 200 ppm [5]: 97% | mortality at 200 ppm [6]: 100% | mortality at 200 ppm [7]: 100% | mortality at 300 ppm [1]: 20% | mortality at 300 ppm (24 hr, read-out: Mortality (%)): 22% | mortality at 300 ppm [2]: 52% | mortality at 300 ppm (48 hr, read-out: Mortality (%)): 53% | mortality at 300 ppm [3]: 81% | mortality at 300 ppm (72 hr, read-out: Mortality (%)): 83% | mortality at 300 ppm [4]: 100% | mortality at 300 ppm [5]: 99% | mortality at 300 ppm [6]: 100% | mortality at 300 ppm [7]: 100% | mortality at 400 ppm [1]: 23% | mortality at 400 ppm (24 hr, read-out: Mortality (%)): 25% | mortality at 400 ppm [2]: 58% | mortality at 400 ppm (48 hr, read-out: Mortality (%)): 59% | mortality at 400 ppm [3]: 90% | mortality at 400 ppm (72 hr, read-out: Mortality (%)): 90% | mortality at 400 ppm [4]: 100% | mortality at 400 ppm [5]: 100% | mortality at 400 ppm [6]: 100% | mortality at 400 ppm [7]: 100% | LC50 (ppm) (Day 2): 237 ppm | LC50 (ppm) (Day 3): 38 ppm
